Laboratory results published in PMC9959817, “Flow-Based Fmoc-SPPS Preparation and SAR Study of Cathelicidin-PY Reveals Selective Antimicrobial Activity” (Molecules, 2023).
In brackets after ≈: the same amount, converted by molar mass. Where two headings read alike, the source gives them in different places. Where a SMILES comes first, the peptide text is derived from it. Bridges are numbered along the chain shown (N, C = ends). Where no end group is shown, it is not given here. [ ]: non-standard residue; d: D form. Dab = NCC[C@H](N)C(=O)O

Columns and labels:
S. aureus (ATCC 29213) = assay: microbe, parasite or virus in culture; type: cell-based, Staphylococcus aureus; conditions: read-out: Minimum Inhibitory Concentration
Excerpt: (§1) As we were primarily interested in the clinical potential of cathelicidin-PY (1) and its analogues 2–9, cation-adjusted Mueller-Hinton broth (CAMHB) was implemented during our in vitro antimicrobial screening towards bacteria. However, non-cation adjusted Mueller Hinton broth (MHB) was also implemented to evaluate the cation sensitivity of these AMPs. In each medium, compounds 1–9 were subjected to minimum inhibitory concentration (MIC) assays with E. coli (ATCC 25922), P. aeruginosa (SVB-B9), and S. aureus (ATCC 29213), in accordance with CLSI microbroth dilution protocols (Table 1). It is noteworthy, however, that the initial report of cathelicidin-PY’s isolation documented MIC assays performed in Luria Broth (LB). Furthermore, antifungal activity towards C. albicans was investigated.
(§2) Staphylococcus aureus ATCC 29213, Pseudomonas aeruginosa (SVB-B9) (type strain), and Escherichia coli ATCC 25,922 were grown in either non-cation-adjusted or cation-adjusted Mueller Hinton (MH) broth at 37 °C with shaking (200 rpm). MIC assays were performed in technical triplicate in accordance with the CLSI-recommended protocol. All assays were performed independently on three occasions, with the reported MIC defined as the lowest concentration for which agreement was observed consistently for all replicates.

C. albicans (SC5314) = assay: microbe, parasite or virus in culture; type: cell-based, Candida albicans; conditions: read-out: Minimum Inhibitory Concentration
Excerpt: as §1
Antimicrobial susceptibility of Candida albicans SC5314 (type strain) was assessed by broth microdilution in RPMI 1640 media in accordance with the CLSI recommended protocols. All assays were performed independently on three occasions, with the reported MIC defined as the lowest concentration for which agreement was observed consistently for all replicates.

P. aeruginosa (SVB-B9) = assay: microbe, parasite or virus in culture; type: cell-based, Pseudomonas aeruginosa; conditions: for Minimum Inhibitory Concentration: SVB-B9; for MIC: P. aeruginosa SVB-B9 type strain, 37 °C, technical triplicate, three independent occasions, read-out: Minimum Inhibitory Concentration
Excerpt: as §1, §2

E. coli (ATCC 25922) = type: cell-based, Escherichia coli; conditions: 37 °C, technical triplicate, three independent occasions
Excerpt: as §1, §2

[1] = non-cation-adjusted Mueller-Hinton broth (MHB)

Compound | MIC (S. aureus (ATCC 29213); ATCC 29213) [µM] | MIC (C. albicans (SC5314); SC5314) [µM] | Minimum Inhibitory Concentration (P. aeruginosa (SVB-B9)) [µM] | further results
CC[C@H](C)[C@H](NC(=O)[C@H](Cc1c[nH]cn1)NC(=O)[C@H](CO)NC(=O)[C@@H](NC(=O)[C@@H](NC(=O)[C@@H](NC(=O)[C@@H](NC(=O)[C@H](CCCNC(=N)N)NC(=O)[C@H](CC(C)C)NC(=O)[C@H](CCCCN)NC(=O)[C@H](CCC(=O)O)NC(=O)[C@H](CCCCN)NC(=O)[C@H](CC(C)C)NC(=O)[C@H](CCCCN)NC(=O)[C@@H]1CCCCNC(=O)CC[C@H](NC(=O)[C@H](CCCCN)NC(=O)[C@@H](N)CCCNC(=N)N)C(=O)N[C@@H](CC(N)=O)C(=O)N[C@@H](Cc2ccccc2)C(=O)N[C@@H](CC(C)C)C(=O)N1)[C@@H](C)O)C(C)C)[C@@H](C)CC)[C@@H](C)O)C(=O)N[C@@H](CC(=O)O)C(=O)N[C@@H](CCCCN)C(=O)N[C@H](C(=O)N[C@@H](CC(C)C)C(=O)N[C@@H](CCCNC(=N)N)C(=O)N1CCC[C@H]1C(=O)N[C@@H](CCC(N)=O)C(=O)NCC(=O)O)C(C)C [Compound 4] (H-RKENFLKKLKEKLRTVITSHIDKVLRPQG-OH; lactam 3-7) | >64 | >64 | – | –
CC[C@H](C)[C@H](NC(=O)[C@H](Cc1c[nH]cn1)NC(=O)[C@H](CO)NC(=O)[C@@H](NC(=O)[C@@H](NC(=O)[C@@H](NC(=O)[C@@H](NC(=O)[C@H](CCCNC(=N)N)NC(=O)[C@H](CC(C)C)NC(=O)[C@H](CCCCN)NC(=O)[C@H](CCC(=O)O)NC(=O)[C@H](CCCCN)NC(=O)[C@H](CC(C)C)NC(=O)[C@H](CCCCN)NC(=O)[C@@H]1CCNC(=O)C[C@H](NC(=O)[C@H](CCCCN)NC(=O)[C@@H](N)CCCNC(=N)N)C(=O)N[C@@H](CC(N)=O)C(=O)N[C@@H](Cc2ccccc2)C(=O)N[C@@H](CC(C)C)C(=O)N1)[C@@H](C)O)C(C)C)[C@@H](C)CC)[C@@H](C)O)C(=O)N[C@@H](CC(=O)O)C(=O)N[C@@H](CCCCN)C(=O)N[C@H](C(=O)N[C@@H](CC(C)C)C(=O)N[C@@H](CCCNC(=N)N)C(=O)N1CCC[C@H]1C(=O)N[C@@H](CCC(N)=O)C(=O)NCC(=O)O)C(C)C [Compound 8] (H-RKDNFL[Dab]KLKEKLRTVITSHIDKVLRPQG-OH; lactam 3-7) | >64 | >64 | 4 to 8 | –
CC[C@H](C)[C@H](NC(=O)[C@H](Cc1c[nH]cn1)NC(=O)[C@H](CO)NC(=O)[C@@H](NC(=O)[C@@H](NC(=O)[C@@H](NC(=O)[C@@H](NC(=O)[C@H](CCCNC(=N)N)NC(=O)[C@H](CC(C)C)NC(=O)[C@H](CCCCN)NC(=O)[C@H](CCC(=O)O)NC(=O)[C@H](CCCCN)NC(=O)[C@H](CC(C)C)NC(=O)[C@H](CCCCN)NC(=O)[C@@H]1CCC(=O)NCCCC[C@H](NC(=O)[C@H](CCCCN)NC(=O)[C@@H](N)CCCNC(=N)N)C(=O)N[C@@H](CC(N)=O)C(=O)N[C@@H](Cc2ccccc2)C(=O)N[C@@H](CC(C)C)C(=O)N1)[C@@H](C)O)C(C)C)[C@@H](C)CC)[C@@H](C)O)C(=O)N[C@@H](CC(=O)O)C(=O)N[C@@H](CCCCN)C(=O)N[C@H](C(=O)N[C@@H](CC(C)C)C(=O)N[C@@H](CCCNC(=N)N)C(=O)N1CCC[C@H]1C(=O)N[C@@H](CCC(N)=O)C(=O)NCC(=O)O)C(C)C [Compound 6] (H-RKKNFLEKLKEKLRTVITSHIDKVLRPQG-OH; lactam 3-7) | >64 | >64 | 4 to 8 | –
RKANFLAKLKEKLRTVITSHIDKVLRPQG [Compound 2] | >64 | >64 | 4 to 8 | –
CC[C@H](C)[C@H](NC(=O)[C@H](Cc1c[nH]cn1)NC(=O)[C@H](CO)NC(=O)[C@@H](NC(=O)[C@@H](NC(=O)[C@@H](NC(=O)[C@@H](NC(=O)[C@H](CCCNC(=N)N)NC(=O)[C@H](CC(C)C)NC(=O)[C@H](CCCCN)NC(=O)[C@H](CCC(=O)O)NC(=O)[C@H](CCCCN)NC(=O)[C@H](CC(C)C)NC(=O)[C@H](CCCCN)NC(=O)[C@@H]1CC(=O)NCCCC[C@H](NC(=O)[C@H](CCCCN)NC(=O)[C@@H](N)CCCNC(=N)N)C(=O)N[C@@H](CC(N)=O)C(=O)N[C@@H](Cc2ccccc2)C(=O)N[C@@H](CC(C)C)C(=O)N1)[C@@H](C)O)C(C)C)[C@@H](C)CC)[C@@H](C)O)C(=O)N[C@@H](CC(=O)O)C(=O)N[C@@H](CCCCN)C(=O)N[C@H](C(=O)N[C@@H](CC(C)C)C(=O)N[C@@H](CCCNC(=N)N)C(=O)N1CCC[C@H]1C(=O)N[C@@H](CCC(N)=O)C(=O)NCC(=O)O)C(C)C [Compound 7] (H-RKKNFLDKLKEKLRTVITSHIDKVLRPQG-OH; lactam 3-7) | >64 | >64 | – | –
polymyxin B sulfate [reference compound] | – | – | – | Minimum Inhibitory Concentration (E. coli (ATCC 25922); cation-adjusted Mueller-Hinton broth (CAMHB)): 1 µM; Minimum Inhibitory Concentration (E. coli (ATCC 25922); [1]): 1 µM; MIC (P. aeruginosa (SVB-B9); [1]): 2 µM
C[C@@H]1[C@H](O)[C@@H](C)/C=C/C=C/C=C/C=C/C=C/C=C/C=C/[C@H](O[C@@H]2O[C@H](C)[C@@H](O)[C@H](N)[C@@H]2O)C[C@@H]2O[C@](O)(C[C@@H](O)C[C@@H](O)[C@H](O)CC[C@@H](O)C[C@@H](O)CC(=O)O[C@H]1C)C[C@H](O)[C@H]2C(=O)O [A, Amphotericin B, reference compound] | – | – | – | MIC (S. aureus (ATCC 29213); S. aureus ATCC 29213, non-cation-adjusted Mueller-Hinton broth (MHB), 37 °C, technical triplicate, three independent occasions): >64 µM; MIC (S. aureus (ATCC 29213); Staphylococcus aureus, ATCC29213, S. aureus ATCC 29213, cation-adjusted Mueller-Hinton broth (CAMHB), 37 °C, technical triplicate, three independent occasions): > 64 µM; MIC (C. albicans (SC5314); Candida albicans, C. albicans SC5314 type strain, RPMI 1640 media, three independent occasions): 1 µM (≈ 0.924 µg/mL); MIC (P. aeruginosa (SVB-B9); Pseudomonas aeruginosa, cation-adjusted Mueller-Hinton broth (CAMHB)): 2 µM (≈ 1.85 µg/mL)
CC[C@H](C)[C@@H]1NC(=O)[C@H](Cc2c[nH]cn2)NC(=O)[C@H](CO)NC(=O)[C@H]([C@@H](C)O)NC(=O)[C@H]([C@@H](C)CC)NC(=O)[C@H](C(C)C)NC(=O)[C@H]([C@@H](C)O)NC(=O)[C@H](CCCNC(=N)N)NC(=O)[C@H](CC(C)C)NC(=O)[C@H](CCCCN)NC(=O)[C@H](CCC(=O)O)NC(=O)[C@H](CCCCN)NC(=O)[C@H](CC(C)C)NC(=O)[C@H](CCCCN)NC(=O)[C@@H]2CSSC[C@H](NC(=O)[C@H](CCCCN)NC(=O)[C@H](CCCNC(=N)N)NC(=O)CNC(=O)[C@H](CCC(N)=O)NC(=O)[C@@H]3CCCN3C(=O)[C@H](CCCNC(=N)N)NC(=O)[C@H](CC(C)C)NC(=O)[C@H](C(C)C)NC(=O)[C@H](CCCCN)NC(=O)[C@H](CC(=O)O)NC1=O)C(=O)N[C@@H](CC(N)=O)C(=O)N[C@@H](Cc1ccccc1)C(=O)N[C@@H](CC(C)C)C(=O)N2 [Compound 3] (cyclo(CKLKEKLRTVITSHIDKVLRPQGRKCNFL); disulfide 1-26) | >64 | >64 | – | –
CC[C@H](C)[C@H](NC(=O)[C@H](Cc1c[nH]cn1)NC(=O)[C@H](CO)NC(=O)[C@@H](NC(=O)[C@@H](NC(=O)[C@@H](NC(=O)[C@@H](NC(=O)[C@H](CCCNC(=N)N)NC(=O)[C@H](CC(C)C)NC(=O)[C@H](CCCCN)NC(=O)[C@H](CCC(=O)O)NC(=O)[C@H](CCCCN)NC(=O)[C@H](CC(C)C)NC(=O)[C@H](CCCCN)NC(=O)[C@@H]1CCCCNC(=O)C[C@H](NC(=O)[C@H](CCCCN)NC(=O)[C@@H](N)CCCNC(=N)N)C(=O)N[C@@H](CC(N)=O)C(=O)N[C@@H](Cc2ccccc2)C(=O)N[C@@H](CC(C)C)C(=O)N1)[C@@H](C)O)C(C)C)[C@@H](C)CC)[C@@H](C)O)C(=O)N[C@@H](CC(=O)O)C(=O)N[C@@H](CCCCN)C(=O)N[C@H](C(=O)N[C@@H](CC(C)C)C(=O)N[C@@H](CCCNC(=N)N)C(=O)N1CCC[C@H]1C(=O)N[C@@H](CCC(N)=O)C(=O)NCC(=O)O)C(C)C [Compound 5] (H-RKDNFLKKLKEKLRTVITSHIDKVLRPQG-OH; lactam 3-7) | >64 | >64 | – | –
CC[C@H](C)[C@H](NC(=O)[C@H](Cc1c[nH]cn1)NC(=O)[C@H](CO)NC(=O)[C@@H](NC(=O)[C@@H](NC(=O)[C@@H](NC(=O)[C@@H](NC(=O)[C@H](CCCNC(=N)N)NC(=O)[C@H](CC(C)C)NC(=O)[C@H](CCCCN)NC(=O)[C@H](CCC(=O)O)NC(=O)[C@H](CCCCN)NC(=O)[C@H](CC(C)C)NC(=O)[C@H](CCCCN)NC(=O)[C@@H]1CCNC(=O)CC[C@H](NC(=O)[C@H](CCCCN)NC(=O)[C@@H](N)CCCNC(=N)N)C(=O)N[C@@H](CC(N)=O)C(=O)N[C@@H](Cc2ccccc2)C(=O)N[C@@H](CC(C)C)C(=O)N1)[C@@H](C)O)C(C)C)[C@@H](C)CC)[C@@H](C)O)C(=O)N[C@@H](CC(=O)O)C(=O)N[C@@H](CCCCN)C(=O)N[C@H](C(=O)N[C@@H](CC(C)C)C(=O)N[C@@H](CCCNC(=N)N)C(=O)N1CCC[C@H]1C(=O)N[C@@H](CCC(N)=O)C(=O)NCC(=O)O)C(C)C [Compound 9] (H-RKENFL[Dab]KLKEKLRTVITSHIDKVLRPQG-OH; lactam 3-7) | >64 | >64 | – | –
